Measurements: PubChem BioAssay AID2060889 (Molecular Pharmacology Branch, DTP, NCI, 2025)

Test system: LG0567-F671-PDC complex spheroids viability
Experiment: Anticancer human tumor LG0567-F671-PDC patient-derived lung adenocarcinoma cell line growth inhibition [RAS]
Conditions: for IC50: curve of first compound; for viability, T/C: stronger effect = lower value
Summary of the method: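 Agents were tested in combination matrices in half-log decrements from a top concentration at or near clinical Cmax (10 microM if undetermined). Targets were multi-cell spheroids of tumour lines plus HUVEC and MSC stromal cells.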

[1] = second compound 0.00316 µM, first compound 0.0316 µM
[2] = second compound 0.00316 µM, first compound 0.1 µM
[3] = second compound 0.00316 µM, first compound 0.316 µM
[4] = second compound 0.00316 µM, first compound 1 µM
[5] = second compound 0.01 µM, first compound 0.0316 µM
[6] = second compound 0.01 µM, first compound 0.1 µM
[7] = second compound 0.01 µM, first compound 0.316 µM
[8] = second compound 0.01 µM, first compound 1 µM
[9] = second compound 0.0316 µM, first compound 0.0316 µM
[10] = second compound 0.0316 µM, first compound 0.1 µM
[11] = second compound 0.0316 µM, first compound 0.316 µM
[12] = second compound 0.0316 µM, first compound 1 µM
[13] = second compound 0.0316 µM, first compound 3.16 µM
[14] = second compound 0.0316 µM, first compound 10 µM
[15] = second compound 0.1 µM, first compound 0.0316 µM
[16] = second compound 0.1 µM, first compound 0.1 µM
[17] = second compound 0.1 µM, first compound 0.316 µM
[18] = second compound 0.1 µM, first compound 1 µM
[19] = second compound 0.1 µM, first compound 3.16 µM
[20] = second compound 0.1 µM, first compound 10 µM
[21] = second compound 0.316 µM, first compound 0.0316 µM
[22] = second compound 0.316 µM, first compound 0.1 µM
[23] = second compound 0.316 µM, first compound 0.316 µM
[24] = second compound 0.316 µM, first compound 1 µM
[25] = second compound 0.316 µM, first compound 3.16 µM
[26] = second compound 0.316 µM, first compound 10 µM
[27] = second compound 1 µM, first compound 0.0316 µM
[28] = second compound 1 µM, first compound 0.1 µM
[29] = second compound 1 µM, first compound 0.316 µM
[30] = second compound 1 µM, first compound 1 µM
[31] = second compound 1 µM, first compound 3.16 µM
[32] = second compound 1 µM, first compound 10 µM
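Also: spheroids exposed to compound for seven days before readout.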
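For IC50 in this document: luminescence signal used as a proxy for viable cells.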

Cc1nc(N2CCC3(CC2)COC(C)C3N)c(CO)nc1Sc1ccnc(N)c1Cl (stereo unspecified) + C=CC(=O)N1CCN(c2nc(OCC3CCCN3C)nc3c(F)c(-c4nc(N)cc(C)c4C(F)(F)F)c(Cl)cc23)C(C)C1
IC50 (second compound 0.00316 µM): < 31.6 nM | IC50 (second compound 0.01 µM): < 31.6 nM | IC50 (second compound 0.0316 µM): < 31.6 nM | IC50 (second compound 0.1 µM): < 31.6 nM | IC50 (second compound 0.316 µM): < 31.6 nM | IC50 (second compound 1 µM): < 31.6 nM | viability, T/C [1]: 12.4% | viability, T/C [2]: 7.94% | viability, T/C [3]: 5.15% | viability, T/C [4]: 4.23% | viability, T/C (second compound 0.00316 µM, first compound 3.16 µM): 3.11% | viability, T/C (second compound 0.00316 µM, first compound 10 µM): 3.36% | viability, T/C [5]: 10.9% | viability, T/C [6]: 6.73% | viability, T/C [7]: 5.04% | viability, T/C [8]: 3.41% | viability, T/C (second compound 0.01 µM, first compound 3.16 µM): 3.13% | viability, T/C (second compound 0.01 µM, first compound 10 µM): 2.84% | viability, T/C [9]: 9.73% | viability, T/C [10]: 7.78% | viability, T/C [11]: 4.91% | viability, T/C [12]: 3.38% | viability, T/C [13]: 3.09% | viability, T/C [14]: 2.69% | viability, T/C [15]: 9.46% | viability, T/C [16]: 8.29% | viability, T/C [17]: 4.85% | viability, T/C [18]: 3.44% | viability, T/C [19]: 3.22% | viability, T/C [20]: 2.91% | viability, T/C [21]: 10.3% | viability, T/C [22]: 7.09% | viability, T/C [23]: 5.95% | viability, T/C [24]: 4.14% | viability, T/C [25]: 3.2% | viability, T/C [26]: 3.39% | viability, T/C [27]: 9.98% | viability, T/C [28]: 8.28% | viability, T/C [29]: 6.91% | viability, T/C [30]: 4.16% | viability, T/C [31]: 3.7% | viability, T/C [32]: 4.07%

CC(C)NCC(C(=O)N1CCN(c2ncnc3c2C(C)CC3O)CC1)c1ccc(Cl)cc1 (stereo unspecified) + C#Cc1c(F)ccc2cc(O)cc(-c3ncc4c(N5CC6CCC(C5)N6)nc(OCC56CCCN5CC(F)C6)nc4c3F)c12
IC50 (second compound 0.0316 µM): > 10000 nM | IC50 (second compound 0.1 µM): > 10000 nM | IC50 (second compound 0.316 µM): 62.2 nM | IC50 (second compound 1 µM): < 31.6 nM | IC50 (second compound 3.16 µM): < 31.6 nM | IC50 (second compound 10 µM): < 31.6 nM | viability, T/C [9]: 93.5% | viability, T/C [10]: 88.3% | viability, T/C [11]: 72% | viability, T/C [12]: 60.1% | viability, T/C [13]: 63.5% | viability, T/C [14]: 55% | viability, T/C [15]: 84.2% | viability, T/C [16]: 66% | viability, T/C [17]: 70.6% | viability, T/C [18]: 51.3% | viability, T/C [19]: 59.3% | viability, T/C [20]: 56.4% | viability, T/C [21]: 50.3% | viability, T/C [22]: 50.1% | viability, T/C [23]: 54.7% | viability, T/C [24]: 35.9% | viability, T/C [25]: 47% | viability, T/C [26]: 51.6% | viability, T/C [27]: 35.4% | viability, T/C [28]: 29.8% | viability, T/C [29]: 30% | viability, T/C [30]: 28.1% | viability, T/C [31]: 28.2% | viability, T/C [32]: 31.2% | viability, T/C (second compound 3.16 µM, first compound 0.0316 µM): 19.4% | viability, T/C (second compound 3.16 µM, first compound 0.1 µM): 17.9% | viability, T/C (second compound 3.16 µM, first compound 0.316 µM): 19.2% | viability, T/C (second compound 3.16 µM, first compound 1 µM): 13.9% | viability, T/C (second compound 3.16 µM, first compound 3.16 µM): 14.9% | viability, T/C (second compound 3.16 µM, first compound 10 µM): 13.4% | viability, T/C (second compound 10 µM, first compound 0.0316 µM): 12.4% | viability, T/C (second compound 10 µM, first compound 0.1 µM): 12.7% | viability, T/C (second compound 10 µM, first compound 0.316 µM): 11.1% | viability, T/C (second compound 10 µM, first compound 1 µM): 9.42% | viability, T/C (second compound 10 µM, first compound 3.16 µM): 8.58% | viability, T/C (second compound 10 µM, first compound 10 µM): 5.74%

O=C(c1ccc(F)c(F)c1Nc1ccc(I)cc1F)N1CC(O)([C@@H]2CCCCN2)C1 + C=CC(=O)N1CCN(c2nc(OCC3CCCN3C)nc3c(F)c(-c4nc(N)cc(C)c4C(F)(F)F)c(Cl)cc23)C(C)C1
IC50 (second compound 0.00316 µM): < 3.16 nM | IC50 (second compound 0.01 µM): < 3.16 nM | IC50 (second compound 0.0316 µM): < 3.16 nM | IC50 (second compound 0.1 µM): < 3.16 nM | IC50 (second compound 0.316 µM): < 3.16 nM | IC50 (second compound 1 µM): < 3.16 nM | viability, T/C (second compound 0.00316 µM, first compound 0.00316 µM): 15.6% | viability, T/C (second compound 0.00316 µM, first compound 0.01 µM): 16.9% | viability, T/C [1]: 8.91% | viability, T/C [2]: 8.75% | viability, T/C [3]: 3.51% | viability, T/C [4]: 1.58% | viability, T/C (second compound 0.01 µM, first compound 0.00316 µM): 12.4% | viability, T/C (second compound 0.01 µM, first compound 0.01 µM): 11.6% | viability, T/C [5]: 10.7% | viability, T/C [6]: 5.03% | viability, T/C [7]: 3.8% | viability, T/C [8]: 1.56% | viability, T/C (second compound 0.0316 µM, first compound 0.00316 µM): 11.8% | viability, T/C (second compound 0.0316 µM, first compound 0.01 µM): 8.27% | viability, T/C [9]: 7.53% | viability, T/C [10]: 5.24% | viability, T/C [11]: 3.75% | viability, T/C [12]: 1.45% | viability, T/C (second compound 0.1 µM, first compound 0.00316 µM): 11.5% | viability, T/C (second compound 0.1 µM, first compound 0.01 µM): 9.3% | viability, T/C [15]: 6.61% | viability, T/C [16]: 5.01% | viability, T/C [17]: 2.96% | viability, T/C [18]: 1.42% | viability, T/C (second compound 0.316 µM, first compound 0.00316 µM): 12.2% | viability, T/C (second compound 0.316 µM, first compound 0.01 µM): 9.6% | viability, T/C [21]: 6.94% | viability, T/C [22]: 5.35% | viability, T/C [23]: 3.61% | viability, T/C [24]: 1.71% | viability, T/C (second compound 1 µM, first compound 0.00316 µM): 12.3% | viability, T/C (second compound 1 µM, first compound 0.01 µM): 10.1% | viability, T/C [27]: 7.82% | viability, T/C [28]: 5.94% | viability, T/C [29]: 4.07% | viability, T/C [30]: 1.77%
